Source: PubChem BioAssay AID2060882 (Molecular Pharmacology Branch, DTP, NCI, 2025)

Tested on: 898857-211-R-J1-PDC complex spheroids, growth % test/control
Assay: Anticancer human tumor 898857-211-R-J1-PDC patient-derived melanoma cell line growth inhibition [RAS]
Details: for IC50: curve of first compound; for viability, T/C: stronger effect = lower value
Summary of the method: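 Multi-cell-type spheroids: tumor cells plus HUVEC endothelial cells and mesenchymal stem cells. RAS-pathway inhibitors were combined with targeted agents, each dosed in half-log steps down from clinical Cmax, or from 10 microM when Cmax was unknown.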

[1] = second compound 0.00316 µM, first compound 0.0316 µM
[2] = second compound 0.00316 µM, first compound 0.1 µM
[3] = second compound 0.00316 µM, first compound 0.316 µM
[4] = second compound 0.00316 µM, first compound 1 µM
[5] = second compound 0.00316 µM, first compound 3.16 µM
[6] = second compound 0.00316 µM, first compound 10 µM
[7] = second compound 0.01 µM, first compound 0.0316 µM
[8] = second compound 0.01 µM, first compound 0.1 µM
[9] = second compound 0.01 µM, first compound 0.316 µM
[10] = second compound 0.01 µM, first compound 1 µM
[11] = second compound 0.01 µM, first compound 3.16 µM
[12] = second compound 0.01 µM, first compound 10 µM
[13] = second compound 0.0316 µM, first compound 0.0316 µM
[14] = second compound 0.0316 µM, first compound 0.1 µM
[15] = second compound 0.0316 µM, first compound 0.316 µM
[16] = second compound 0.0316 µM, first compound 1 µM
[17] = second compound 0.0316 µM, first compound 3.16 µM
[18] = second compound 0.0316 µM, first compound 10 µM
[19] = second compound 0.1 µM, first compound 0.0316 µM
[20] = second compound 0.1 µM, first compound 0.1 µM
[21] = second compound 0.1 µM, first compound 0.316 µM
[22] = second compound 0.1 µM, first compound 1 µM
[23] = second compound 0.1 µM, first compound 3.16 µM
[24] = second compound 0.1 µM, first compound 10 µM
[25] = second compound 0.316 µM, first compound 0.0316 µM
[26] = second compound 0.316 µM, first compound 0.1 µM
[27] = second compound 0.316 µM, first compound 0.316 µM
[28] = second compound 0.316 µM, first compound 1 µM
[29] = second compound 0.316 µM, first compound 3.16 µM
[30] = second compound 0.316 µM, first compound 10 µM
[31] = second compound 1 µM, first compound 0.0316 µM
[32] = second compound 1 µM, first compound 0.1 µM
[33] = second compound 1 µM, first compound 0.316 µM
[34] = second compound 1 µM, first compound 1 µM
[35] = second compound 1 µM, first compound 3.16 µM
[36] = second compound 1 µM, first compound 10 µM
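Note: spheroids exposed to compound for seven days before readout.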
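Throughout, for viability, T/C: 100% = DMSO vehicle control wells.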

CC1(O)CCCC1n1c(=O)c(C(F)F)cc2cnc(NC3CCN(S(C)(=O)=O)CC3)nc21 (stereo unspecified) + C=CC(=O)N1CCN(c2nc(OCC3CCCN3C)nc3c(F)c(-c4nc(N)cc(C)c4C(F)(F)F)c(Cl)cc23)C(C)C1 showed an IC50 (second compound 0.00316 µM) of 228 nM, an IC50 (second compound 0.01 µM) of 300 nM and an IC50 (second compound 0.0316 µM) of 252 nM. For the same compound, the IC50 (second compound 0.1 µM) was 286 nM, the IC50 (second compound 0.316 µM) was 315 nM and the IC50 (second compound 1 µM) was 230 nM. For the same compound, the viability, T/C [1] was 103%, the viability, T/C [2] was 57.7% and the viability, T/C [3] was 45.6%. It also gave a viability, T/C [4] of 43.5%, a viability, T/C [5] of 47.1% and a viability, T/C [6] of 19.7%. For the same compound, the viability, T/C [7] was 75.3%, the viability, T/C [8] was 61% and the viability, T/C [9] was 39%. For the same compound, the viability, T/C [10] was 44.9%, the viability, T/C [11] was 39.7% and the viability, T/C [12] was 17.4%. It also gave a viability, T/C [13] of 87.6%, a viability, T/C [14] of 57.1% and a viability, T/C [15] of 42.4%. The viability, T/C [16] was 45.6%, the viability, T/C [17] was 43.7% and the viability, T/C [18] was 19.3%. For the same compound, the viability, T/C [19] was 92.1%, the viability, T/C [20] was 55.5% and the viability, T/C [21] was 47.9%. It also gave a viability, T/C [22] of 46.1%, a viability, T/C [23] of 47.7% and a viability, T/C [24] of 18.6%. For the same compound, the viability, T/C [25] was 109%, the viability, T/C [26] was 67% and the viability, T/C [27] was 46%. The viability, T/C [28] was 44.7%, the viability, T/C [29] was 45.2% and the viability, T/C [30] was 17.5%. The viability, T/C [31] was 115%, the viability, T/C [32] was 59.5% and the viability, T/C [33] was 46.3%. For the same compound, the viability, T/C [34] was 36%, the viability, T/C [35] was 42.8% and the viability, T/C [36] was 10.9%.
Compound CCN1CCN(Cc2ccc(Nc3ncc(F)c(-c4cc(F)c5nc(C)n(C(C)C)c5c4)n3)nc2)CC1 + C=CC(=O)N1CCN(c2nc(OCC3CCCN3C)nc3c(F)c(-c4nc(N)cc(C)c4C(F)(F)F)c(Cl)cc23)C(C)C1 has an IC50 (second compound 0.00316 µM) of 366 nM, an IC50 (second compound 0.01 µM) of 313 nM and an IC50 (second compound 0.0316 µM) of 377 nM. The IC50 (second compound 0.1 µM) was 490 nM, the IC50 (second compound 0.316 µM) was over 1000 nM and the IC50 (second compound 1 µM) was 309 nM. For the same compound, the viability, T/C (second compound 0.00316 µM, first compound 0.00316 µM) was 106%, the viability, T/C (second compound 0.00316 µM, first compound 0.01 µM) was 106% and the viability, T/C [1] was 95.4%. The viability, T/C [2] was 72.2%, the viability, T/C [3] was 52.4% and the viability, T/C [4] was 41.2%. The viability, T/C (second compound 0.01 µM, first compound 0.00316 µM) was 101%, the viability, T/C (second compound 0.01 µM, first compound 0.01 µM) was 106% and the viability, T/C [7] was 86.6%. The viability, T/C [8] was 80.2%, the viability, T/C [9] was 45.7% and the viability, T/C [10] was 40.2%. It also gave a viability, T/C (second compound 0.0316 µM, first compound 0.00316 µM) of 121%, a viability, T/C (second compound 0.0316 µM, first compound 0.01 µM) of 102% and a viability, T/C [13] of 83.4%. For the same compound, the viability, T/C [14] was 77%, the viability, T/C [15] was 45.6% and the viability, T/C [16] was 39.2%. The viability, T/C (second compound 0.1 µM, first compound 0.00316 µM) was 118%, the viability, T/C (second compound 0.1 µM, first compound 0.01 µM) was 96.4% and the viability, T/C [19] was 98.2%. It also gave a viability, T/C [20] of 79.2%, a viability, T/C [21] of 56.4% and a viability, T/C [22] of 36.3%. For the same compound, the viability, T/C (second compound 0.316 µM, first compound 0.00316 µM) was 112%, the viability, T/C (second compound 0.316 µM, first compound 0.01 µM) was 117% and the viability, T/C [25] was 91.8%. The viability, T/C [26] was 64.8%, the viability, T/C [27] was 59% and the viability, T/C [28] was 50.9%. For the same compound, the viability, T/C (second compound 1 µM, first compound 0.00316 µM) was 122%, the viability, T/C (second compound 1 µM, first compound 0.01 µM) was 114% and the viability, T/C [31] was 102%. For the same compound, the viability, T/C [32] was 67.4%, the viability, T/C [33] was 53.8% and the viability, T/C [34] was 38%.
C[C@@H](NC(=O)c1ncnc(N)c1Cl)c1ncc(C(=O)Nc2cc(C(F)(F)F)c(Cl)cn2)s1 + C=CC(=O)N1CCN(c2nc(OCC3CCCN3C)nc3c(F)c(-c4nc(N)cc(C)c4C(F)(F)F)c(Cl)cc23)C(C)C1 was tested, and the IC50 (second compound 0.00316 µM) was 5850 nM, the IC50 (second compound 0.01 µM) was 5330 nM and the IC50 (second compound 0.0316 µM) was 5770 nM. It also gave an IC50 (second compound 0.1 µM) of 5340 nM, an IC50 (second compound 0.316 µM) of 6670 nM and an IC50 (second compound 1 µM) of 5120 nM. It also gave a viability, T/C [1] of 127%, a viability, T/C [2] of 120% and a viability, T/C [3] of 111%. The viability, T/C [4] was 80.8%, the viability, T/C [5] was 63.6% and the viability, T/C [6] was 40%. The viability, T/C [7] was 124%, the viability, T/C [8] was 116% and the viability, T/C [9] was 103%. It also gave a viability, T/C [10] of 90.9%, a viability, T/C [11] of 68.5% and a viability, T/C [12] of 27.7%. It also gave a viability, T/C [13] of 130%, a viability, T/C [14] of 123% and a viability, T/C [15] of 112%. For the same compound, the viability, T/C [16] was 89.3%, the viability, T/C [17] was 71.2% and the viability, T/C [18] was 32.6%. For the same compound, the viability, T/C [19] was 124%, the viability, T/C [20] was 110% and the viability, T/C [21] was 118%. For the same compound, the viability, T/C [22] was 92.1%, the viability, T/C [23] was 61.7% and the viability, T/C [24] was 36.8%. It also gave a viability, T/C [25] of 123%, a viability, T/C [26] of 135% and a viability, T/C [27] of 114%. It also gave a viability, T/C [28] of 96.3%, a viability, T/C [29] of 70.8% and a viability, T/C [30] of 39.1%. It also gave a viability, T/C [31] of 132%, a viability, T/C [32] of 136% and a viability, T/C [33] of 111%. The viability, T/C [34] was 98.5%, the viability, T/C [35] was 57.5% and the viability, T/C [36] was 36.7%.
